Data from patent US20230149419A1, “COMPOSITION FOR PREVENTING OR TREATING NEUROINFLAMMATORY DISEASES, COMPRISING CHLORPROMAZINE” (GliaCellTech Inc., priority 2020, published 2023).

Columns and labels:
[1] = system: primary microglia from Psen2 mutation mouse model of Alzheimer's disease; assay: Effect of REV-ERBα agonist on LPS-induced IL-6 mRNA (qRT-PCR), Psen2 mutation microglia; assay type: cell-based; conditions: for IL-6 mRNA expression level: KI/+ microglia
Method: (§1) The efficacy of SR9009 was evaluated by analyzing IL-6 at protein and mRNA expression levels according to post-LPS treatment time (2, 6, 12, and 24 hours) in the same ELISA and qRT-PCR as in Example 5.

[2] = system: primary microglia from wild-type mice; assay: Effect of REV-ERBα agonist on LPS-induced IL-6 mRNA (qRT-PCR), wild-type microglia; assay type: cell-based, mouse; conditions: for IL-6 mRNA expression level: WT microglia
Method: as §1

[3] = system: primary microglia from wild-type mice; assay: Effect of REV-ERBα agonist on LPS-induced IL-6 secretion (ELISA), wild-type microglia; assay type: cell-based, mouse; conditions: for IL-6 secreted: WT microglia
Method: as §1

[4] = system: primary microglia from Psen2 mutation mouse model of Alzheimer's disease; assay: Effect of REV-ERBα agonist on LPS-induced IL-6 secretion (ELISA), Psen2 mutation microglia; assay type: cell-based; conditions: for IL-6 secreted: KI/+ microglia
Method: as §1

[5] = 10 NM SR9009, LPS 1 μg/mL 2 h (Group 34)
[6] = 10 NM SR9009, LPS 1 μg/mL 6 h (Group 34)
[7] = 10 NM SR9009, LPS 1 μg/mL 12 h (Group 34)
[8] = 10 NM SR9009, LPS 1 μg/mL 24 h (Group 34)
[9] = wild-type microglia, group 32 vs 31, 2, 6, 12 and 24 hours

Structure (SMILES): CCOC(=O)N1CCC(CN(Cc2ccc(Cl)cc2)Cc2ccc([N+](=O)[O-])s2)C1 (centres unmarked) [SR9009]
- IL-6 mRNA expression level [1, 5]: 1.134 fold
- IL-6 mRNA expression level [1, 6]: 7.810 fold
- IL-6 mRNA expression level [1, 7]: 8.512 fold
- IL-6 mRNA expression level [1, 8]: 11.141 fold
- mRNA expression of IL-6 (in words) ([1]; Psen2 mutant microglia, group 34 vs 33): cannot repress
- IL-6 mRNA expression level ([2]; SR9009, LPS 1 μg/mL 2 h (Group 32)): 0.456 fold
- IL-6 mRNA expression level ([2]; SR9009, LPS 1 μg/mL 6 h (Group 32)): 1.098 fold
- IL-6 mRNA expression level ([2]; SR9009, LPS 1 μg/mL 12 h (Group 32)): 1.129 fold
- IL-6 mRNA expression level ([2]; SR9009, LPS 1 μg/mL 24 h (Group 32)): 2.150 fold
- mRNA expression of IL-6 (in words) [2, 9]: repressed the mRNA expression of IL-6
- IL-6 secreted ([3]; 10 NM SR9009, LPS 1 μg/mL 2 h (Group 32)): 24.467 pg/mL
- IL-6 secreted ([3]; 10 NM SR9009, LPS 1 μg/mL 6 h (Group 32)): 85.630 pg/mL
- IL-6 secreted ([3]; 10 NM SR9009, LPS 1 μg/mL 12 h (Group 32)): 361.583 pg/mL
- IL-6 secreted ([3]; 10 NM SR9009, LPS 1 μg/mL 24 h (Group 32)): 555.053 pg/mL
- production of IL-6 (in words) [3, 9]: repressed the production of IL-6
- IL-6 secreted [4, 5]: 38.229 pg/mL
- IL-6 secreted [4, 6]: 332.114 pg/mL
- IL-6 secreted [4, 7]: 1146.560 pg/mL
- IL-6 secreted [4, 8]: 1657.510 pg/mL
- production of IL-6 (in words) ([4]; Psen2 mutation microglia, SR9009-treated group vs group 33): cannot repress
